Assay results: ChEMBL document CHEMBL3779867, “An NMR Biochemical Assay for Fragment-Based Drug Discovery: Evaluation of an Inhibitor Activity on Spermidine Synthase of Trypanosoma cruzi” (J Med Chem, 2016)

Key:
Spermidine synthase [1] = molecular target: T1, Spermidine synthase (Trypanosoma cruzi (strain CL Brener), UniProt Q4CXJ6); assay: Inhibition of Trypanosoma cruzi strain CL Brener N-terminal poly-His tagged spermidine synthase expressed in Escherichia coli BL21(DE3) using 50 uM putrescine as substrate in presence of 100 uM dcSAM incubated for 1 hr by NMR analysis based constant-time batch reaction assay
T1 sequence (Q4CXJ6 whole entry): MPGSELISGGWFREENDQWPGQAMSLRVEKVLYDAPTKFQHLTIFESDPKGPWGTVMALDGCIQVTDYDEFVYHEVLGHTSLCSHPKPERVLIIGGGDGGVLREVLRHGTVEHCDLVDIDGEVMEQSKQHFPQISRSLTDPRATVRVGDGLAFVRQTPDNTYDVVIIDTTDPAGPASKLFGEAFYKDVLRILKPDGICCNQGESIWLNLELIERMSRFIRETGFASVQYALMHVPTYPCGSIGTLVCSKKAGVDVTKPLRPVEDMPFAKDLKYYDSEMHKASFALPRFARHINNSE

Spermidine synthase [2] = molecular target: T2, Spermidine synthase (Sus scrofa, UniProt Q6QA75); assay: Inhibition of porcine spermidine synthase assessed as production of labeled 5'-methylthioadenosine using putrescine as substrate by enzymatic assay in presence of 10 uM decarboxylated AdoMet
T2 sequence (Q6QA75 whole entry): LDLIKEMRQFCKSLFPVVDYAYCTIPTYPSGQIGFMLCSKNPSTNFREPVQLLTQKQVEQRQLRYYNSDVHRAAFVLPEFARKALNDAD

Spermidine synthase [3] = molecular target: T1, Spermidine synthase
Description: Inhibition of Trypanosoma cruzi strain CL Brener N-terminal poly-His tagged spermidine synthase expressed in Escherichia coli BL21(DE3) using 0.5 mM putrescine as substrate in presence of 1 mM dcSAM by FA-real time NMR analysis

Which IC50 (Spermidine synthase [1]) does the source give for NC1=Nc2ccccc2SC1 here?
The IC50 was 100 µM.

With C[C@H]1CC[C@H](N)CC1 as the molecule, how does the IC50 (Spermidine synthase [2]) read?
The IC50 was 1.7 µM.

And the IC50 (Spermidine synthase [3])?
The IC50 was 0.62 µM.

What about the IC50 (Spermidine synthase [1]) of the same molecule?
Its IC50 is 0.093 µM.
